“And” between values parts separate entries of the source, which are not always exact repeats. Equal values may be shown once. “Also recorded” adds a separate entry of the source. Read-outs that look alike come from different tables or passages of the source. Values belong to the compound of their own block, whether it stands above or below them.
Assays:
SW620 cells = test: [14C]rucaparib uptake and retention in SW620 cells; type: in vitro ADME, human; conditions: for effect of transport inhibitor on rucaparib uptake: ouabain 30 or 100 μM, cytochalasin B 0.1 or 1 μM, dipyridamole 10 or 100 μM, BCH 1 or 2 mM
[1] = pre-clinical studies; ref Calabrese et al, 2004; cited from earlier work
PARP [2] = target: T1, PARP (Homo sapiens, UniProt P09874); conditions: patients, after five daily doses; ref Plummer et al, 2008; cited from earlier work
T1 sequence (P09874 whole entry): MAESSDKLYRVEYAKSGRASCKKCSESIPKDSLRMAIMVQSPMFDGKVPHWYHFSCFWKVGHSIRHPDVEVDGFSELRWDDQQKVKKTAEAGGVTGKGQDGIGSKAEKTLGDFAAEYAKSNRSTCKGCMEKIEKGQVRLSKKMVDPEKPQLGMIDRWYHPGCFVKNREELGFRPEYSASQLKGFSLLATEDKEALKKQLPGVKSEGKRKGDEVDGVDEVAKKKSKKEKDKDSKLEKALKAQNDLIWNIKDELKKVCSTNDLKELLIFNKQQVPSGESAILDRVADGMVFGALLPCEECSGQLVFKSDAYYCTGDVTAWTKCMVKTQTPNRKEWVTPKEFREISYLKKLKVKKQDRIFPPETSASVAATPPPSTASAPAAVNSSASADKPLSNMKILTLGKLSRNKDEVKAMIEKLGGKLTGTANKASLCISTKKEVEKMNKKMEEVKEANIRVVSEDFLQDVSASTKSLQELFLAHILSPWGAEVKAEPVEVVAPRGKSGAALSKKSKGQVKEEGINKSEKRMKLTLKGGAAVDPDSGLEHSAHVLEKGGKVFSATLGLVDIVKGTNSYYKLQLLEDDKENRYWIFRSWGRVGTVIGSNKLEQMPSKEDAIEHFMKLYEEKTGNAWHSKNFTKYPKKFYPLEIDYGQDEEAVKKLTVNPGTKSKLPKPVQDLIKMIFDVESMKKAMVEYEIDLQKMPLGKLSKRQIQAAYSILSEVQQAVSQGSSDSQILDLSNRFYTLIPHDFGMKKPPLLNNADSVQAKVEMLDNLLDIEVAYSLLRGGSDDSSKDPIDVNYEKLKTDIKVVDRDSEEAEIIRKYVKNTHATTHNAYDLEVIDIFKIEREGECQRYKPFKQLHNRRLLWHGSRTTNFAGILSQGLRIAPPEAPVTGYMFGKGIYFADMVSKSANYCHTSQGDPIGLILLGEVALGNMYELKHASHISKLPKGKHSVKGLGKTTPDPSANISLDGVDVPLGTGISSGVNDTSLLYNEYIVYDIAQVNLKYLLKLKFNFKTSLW

[3] = Plasma pharmacokinetics and tissue distribution in Capan-1 tumour-bearing mice; type: in vivo
Capan-1 xenografts [4] = test: Efficacy study in mice bearing Capan-1 xenografts; type: in vivo
[5] = target: T2, Poly(ADP-ribose) polymerase-1 (Mus musculus, UniProt P11103); test: in vivo; type: in vivo, mice
T2 sequence (P11103 2-1013): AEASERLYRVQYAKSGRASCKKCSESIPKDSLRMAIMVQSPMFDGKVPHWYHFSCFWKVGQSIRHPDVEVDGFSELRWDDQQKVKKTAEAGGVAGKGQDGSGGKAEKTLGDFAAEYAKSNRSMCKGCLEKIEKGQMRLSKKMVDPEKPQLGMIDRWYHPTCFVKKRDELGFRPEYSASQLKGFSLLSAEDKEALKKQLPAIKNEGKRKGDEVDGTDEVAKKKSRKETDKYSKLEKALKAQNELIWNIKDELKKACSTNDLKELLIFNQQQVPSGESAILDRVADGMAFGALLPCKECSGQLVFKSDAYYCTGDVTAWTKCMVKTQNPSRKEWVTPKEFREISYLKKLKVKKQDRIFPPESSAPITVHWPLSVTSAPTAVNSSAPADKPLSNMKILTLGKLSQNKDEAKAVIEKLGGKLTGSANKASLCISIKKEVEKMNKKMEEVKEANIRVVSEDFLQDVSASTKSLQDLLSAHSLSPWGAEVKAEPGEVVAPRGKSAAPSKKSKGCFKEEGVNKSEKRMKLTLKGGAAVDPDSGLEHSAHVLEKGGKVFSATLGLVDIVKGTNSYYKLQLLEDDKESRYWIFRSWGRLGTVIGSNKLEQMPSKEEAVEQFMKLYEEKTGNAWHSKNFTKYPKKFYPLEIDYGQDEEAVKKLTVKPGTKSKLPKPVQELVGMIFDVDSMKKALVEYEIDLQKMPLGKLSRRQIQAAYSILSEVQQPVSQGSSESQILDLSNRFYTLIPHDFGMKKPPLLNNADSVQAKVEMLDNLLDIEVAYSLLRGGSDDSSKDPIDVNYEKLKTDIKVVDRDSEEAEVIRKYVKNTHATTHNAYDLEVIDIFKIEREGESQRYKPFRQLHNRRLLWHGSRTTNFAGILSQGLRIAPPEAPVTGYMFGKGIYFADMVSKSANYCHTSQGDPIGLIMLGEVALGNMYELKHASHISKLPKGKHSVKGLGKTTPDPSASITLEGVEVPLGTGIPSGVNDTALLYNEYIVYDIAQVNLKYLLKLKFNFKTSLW

[6] = tested on: Poly(ADP-ribose) polymerase-1; test: in vivo; type: in vivo, mice; conditions: for PARP activity in tumours, % of control: 7 days
MX-1 xenografts [7] = test: Efficacy study in mice bearing MX-1 xenografts; type: in vivo; conditions: MX-1 tumour-bearing mice
[8] = target: T2, Poly(ADP-ribose) polymerase-1; type: in vivo, mice; conditions: 24 h after single dose 150 mg kg−1 p.o. or 50 mg kg−1 i.p.
[9] = tested on: Poly(ADP-ribose) polymerase-1; type: in vivo, mice
Capan-1 xenografts [10] = conditions: ref Drew et al, 2011; cited from earlier work
[11] = target: Poly(ADP-ribose) polymerase-1 (Homo sapiens, UniProt P09874); test: PARP activity in cancer cell lines after a 30-min pulse of rucaparib; type: cell-based
Poly(ADP-ribose) polymerase-1 (Homo sapiens, UniProt P09874), sequence (P09874 whole entry): as the sequence (P09874 whole entry) above

[12] = [14C]rucaparib uptake and retention in SW620 cells; type: in vitro ADME, human; conditions: human, SW620 cells
PARP [13] = target: T1, PARP; test: PARP activity in permeabilised or intact Capan-1 cells with carboxy metabolite; type: cell-based
MX-1 xenografts [14] = conditions: ref Shen et al, 2013, cited from earlier work
[15] = SW620 cells, 400 nM [14C]rucaparib
[16] = 10 mg kg−1 i.p. daily × five weekly × six
[17] = Capan-1 and MX-1 cells, 30-min pulse with 400 nM

Compound: C=C1[C@@H](C)[C@H]2[C@H](Cc3ccccc3)NC(=O)[C@]23OC(=O)/C=C/[C@H](O)CCC[C@@H](C)C/C=C/[C@H]3[C@@H]1O [cytochalasin B]
effect of transport inhibitor on rucaparib uptake (SW620 cells; [15]): no effect on uptake

Compound: CN(C)Cc1ccc(-c2nc3cccc4c3n2CCNC4=O)cc1 [AG14361]
tumour distribution and retention [1]: distributed well to the tumour and was retained in the tumour after clearance from the plasma

dose linearity ([3]; mice): apparent dose linearity
rucaparib in tumour at 3 days ([3]; oral rucaparib): still detectable in most mice
time at which parent drug detectable in plasma ([3]; single dose 10 mg kg−1 i.p., all three mice per group): 30 min
time up to which parent drug detectable in plasma ([3]; single dose 50–150 mg kg−1 p.o., all three mice per group): up to 4 h
weight loss (Capan-1 xenografts [4]; Capan-1 tumour-bearing mice, any of the schedules): no significant weight loss
PARP activity in PBMCs, % of control ([5]; 24 h after single dose 10 mg kg−1 i.p.): > 35%
inhibition at 10 mg/kg ([5]; CAPAN-1, mouse, ip, read-out: initial PARP inhibition in brain): ~50%
reduction in brain PARP activity ([5]; oral dosage, 4 h): > 60%
brain PARP activity after recovery, % of baseline ([5]; oral dosage, after 4 h up to 7 days): 70–80%
PARP activity in PBMCs up to 6 h post-administration ([5]; single dose 10 mg kg−1 i.p.): profound suppression
weight loss at nadir (MX-1 xenografts [7]): ≤ 4%
PARP activity 1 week after drug removal [11, 17]: still below baseline
persistence of PARP inhibition after pulse [11, 17]: 72 h
remaining activity at 0.4 µM ([11]; SW-620, read-out: PARP activity, % of control): 35 ± 12%
inhibition at 0.4 µM ([11]; read-out: PARP inhibition, human cancer cell lines (SW620, Capan-1, MX-1), for at least 72 h after 30-min pulse of 400 nM): ≥ 50%
PARP activity below baseline 1 week after initial exposure ([11]; where measured, 30-min pulse): ≥ 30%
half-life [12]: 20 min
rucaparib lost by efflux in the first 5–10 min (SW620 cells; SW620 cells after 30-min pulse with 400 nM): up to 50%
intracellular concentration (SW620 cells; SW620 cells exposed to 400 nM [14C]rucaparib, steady state): > 10 µM
time to steady-state intracellular level (SW620 cells; [15]): ≤ 30 min
uptake with sodium buffer replaced by potassium buffer (SW620 cells; SW620 cells, transport buffer): reduced uptake slightly
uptake with sodium replaced by choline (SW620 cells; SW620 cells, transport buffer): no effect
Compound: CNCc1ccc(-c2[nH]c3cc(F)cc4c3c2CCNC4=O)cc1 [rucaparib]
PARP activity in peripheral blood mononuclear cells (PARP [2]): still suppressed 3 days after the final of five daily doses
partial regressions (Capan-1 xenografts [4]; [16]): two persistent partial regressions
time to quadruple in volume (RTV4) (Capan-1 xenografts [4]; [16]): not reached during the 50-day trial
Complete regressions (Capan-1 xenografts [4]; 10 mg kg−1 i.p., d × 5 w × 6): 1/10
Mice remaining at day 40 (Capan-1 xenografts [4]; 10 mg kg−1 i.p., d × 5 w × 6): 6
Complete regressions (Capan-1 xenografts [4]; 10 mg kg−1 i.p., d × 5 w × 6, listed as Rucaparib): one complete tumour regression
Complete regressions (Capan-1 xenografts [4]; 50 mg kg−1 p.o., d × 5 w × 6): 0/10
Mice remaining at day 40 (Capan-1 xenografts [4]; 50 mg kg−1 p.o., d × 5 w × 6): 2
effect on tumour growth (Capan-1 xenografts [4]; 150 mg kg−1 p.o. daily × five weekly × six): equivalent effect on tumour growth to 10 mg kg^−1 i.p.
antitumour effect of once weekly schedule (Capan-1 xenografts [4]; 150 mg kg−1 p.o. once a week for 6 weeks, compared with other schedules): as effective as; also recorded: greatest antitumour effect
Complete regressions (Capan-1 xenografts [4]; 150 mg kg−1 p.o., 1 × w × 6): three complete regressions and 3/10
Mice remaining at day 40 (Capan-1 xenografts [4]; 150 mg kg−1 p.o., 1 × w × 6): 7
Complete regressions (Capan-1 xenografts [4]; 150 mg kg−1 p.o., 3 × w × 6): 1/10
Mice remaining at day 40 (Capan-1 xenografts [4]; 150 mg kg−1 p.o., 3 × w × 6): 5
Complete regressions (Capan-1 xenografts [4]; 150 mg kg−1 p.o., d × 5 w × 6): 1/10
Mice remaining at day 40 (Capan-1 xenografts [4]; 150 mg kg−1 p.o., d × 5 w × 6): 5
Complete regressions (Capan-1 xenografts [4]; 150 mg kg−1 p.o., dx5 every 3w): 1/10
Mice remaining at day 40 (Capan-1 xenografts [4]; 150 mg kg−1 p.o., dx5 every 3w): 5
effect on tumour growth (Capan-1 xenografts [4]; other dosing schedules incl. 150 mg kg−1 p.o. daily for five days every 3 weeks): only marginal effect on tumour growth
PARP inhibition in Capan-1 tumours ([6]; 7 days following single dose 10 mg kg−1 i.p.): 70%
PARP inhibition in Capan-1 tumours ([6]; 7 days following single dose 150 mg kg−1 p.o.): 90%
PARP activity in tumours, % of control ([6]; single dose 50 mg kg−1 p.o.): ~10%
PARP activity in tumours, % of control ([6]; single dose 150 mg kg−1 p.o.): ~10%
PARP activity in tumours, % of baseline ([6]; after 48 h, 10 mg kg−1 i.p.): ~30%
PARP activity in tumours, % of baseline ([6]; between 30 min and 24 h, all doses and routes (10 mg kg−1 i.p.; 50, 100, 150 mg kg−1 p.o.)): < 20%
PARP inhibition in livers [8]: not in the livers; also recorded: recovered completely within 24 h
PARP inhibition in MX-1 tumours ([9]; 24 h after single dose 50 mg kg−1 i.p.): > 55%
PARP inhibition in MX-1 tumours ([9]; 24 h after single dose 150 mg kg−1 p.o.): > 80%
PARP inhibition in MX-1 tumours ([9]; 3 days after 150 mg kg−1): 87–92%
PARP inhibition in MX-1 tumours ([9]; 7 days after 150 mg kg−1): 44–74%
efficacy of daily for 5 days every week for 6 weeks vs once a day for 10 days (Capan-1 xenografts [10]): more effective
Vmax of rucaparib uptake (SW620 cells; SW620 cells, 30 min exposure, mean and s.d. of three independent experiments): 469±22 pmol per 10^6 cells per 10 min

metabolite concentration relative to parent drug in tumour ([3]; after single dose of rucaparib): lower in the tumour
PARP inhibition after pre-incubation of intact cells (PARP [13]): did not result in PARP inhibition
Compound: O=C(O)c1ccc(-c2[nH]c3cc(F)cc4c3c2CCNC4=O)cc1 [4-(8-fluoro-6-oxo-3,4,5,6-tetrahydro-1H-azepino[5,4,3-cd]indol-2-yl)benzoic acid]
metabolite concentration relative to parent drug in plasma ([3]; after single dose of rucaparib): higher concentrations than the parent drug in the plasma

Compound: NC1(C(=O)O)CC2CCC1C2 (stereo not shown) [BCH]
effect of transport inhibitor on rucaparib uptake (SW620 cells; [15]): neither the nucleoside transport inhibitor, dipyridamole, nor the amino-acid transport inhibitor, BCH, inhibited accumulation

Compound: O=C(c1cc(Cc2n[nH]c(=O)c3ccccc23)ccc1F)N1CCN(C(=O)C2CC2)CC1 [olaparib]
efficacy against MX-1 xenografts (MX-1 xenografts [14]; 100 mg kg−1 daily for 28 days): completely ineffective

Compound: Cn1ncnc1[C@H]1c2n[nH]c(=O)c3cc(F)cc(c23)N[C@@H]1c1ccc(F)cc1 [BMN 673]
efficacy against MX-1 xenografts (MX-1 xenografts [14]; once or twice daily administration): regressions of MX-1 xenografts

Compound: OCCN(CCO)c1nc(N2CCCCC2)c2nc(N(CCO)CCO)nc(N3CCCCC3)c2n1 [dipyridamole]
effect of transport inhibitor on rucaparib uptake (SW620 cells; [15]): neither the nucleoside transport inhibitor, dipyridamole, nor the amino-acid transport inhibitor, BCH, inhibited accumulation

Compound: C[C@@H]1O[C@@H](O[C@H]2C[C@@H](O)[C@]3(CO)[C@H]4[C@H](O)C[C@]5(C)[C@@H](C6=CC(=O)OC6)CC[C@]5(O)[C@@H]4CC[C@]3(O)C2)[C@H](O)[C@H](O)[C@H]1O [Ouabain]
effect of transport inhibitor on rucaparib uptake (SW620 cells; [15]): only a very modest effect
